According to patent publication US12077503B2, “Substituted cyclic amides and their use as herbicides” (FMC CORPORATION, priority 2015, dated 2024):

Columns and labels:
Type in all cases: in vivo
[1] = test system: sedge, umbrella (small-flower umbrella sedge, Cyperus difformis); test: Test B flooded paddy test; conditions: Cyperus difformis, 250 g ai/ha, Flood; 0 to 100 scale where 0 is no effect and 100 is complete control; read-out: Sedge, Umbrella plant response rating
Outline: (§1)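 Plants at 2-leaf stage flooded to 3 cm above soil, with compounds applied directly to paddy water and that depth maintained. Plants kept in greenhouse 13–15 d. Visual rating versus controls on a 0 (no effect) to 100 (complete control) scale.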

[2] = test system: rice (Oryra sativa); test: Test B flooded paddy test; conditions: Oryza sativa, 250 g ai/ha, Flood; 0 to 100 scale where 0 is no effect and 100 is complete control; read-out: Rice plant response rating
Outline: as §1

[3] = test system: barnyardgrass (Echinochloa crus-galli); test: Test B flooded paddy test; conditions: Echinochloa crus-galli, 250 g ai/ha, Flood; 0 to 100 scale where 0 is no effect and 100 is complete control; read-out: Barnyardgrass plant response rating
Outline: as §1

[4] = test system: ducksalad (Heteranthera limosa); test: Test B flooded paddy test; conditions: Heteranthera limosa, 250 g ai/ha, Flood; 0 to 100 scale where 0 is no effect and 100 is complete control; read-out: Ducksalad plant response rating
Outline: as §1

[5] = test system: wheat (Triticum aestivum); test: Test A postemergence; conditions: Triticum aestivum, post-emergence, 240 h, Postemergence, read-out: Plant response rating, Wheat
Outline: (§2)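 Preemergence directed soil spray on seeded pots, or postemergence application to plants 2–10 cm, one- to two-leaf. Solvent mixture non-phytotoxic, with surfactant. Scored ~10 d later, visually, 0–100 vs untreated.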

[6] = test system: Galium (catchweed bedstraw, Galium aparine); test: Test A postemergence; conditions: Galium, post-emergence, 240 h, Postemergence, read-out: Plant response rating, Galium
Outline: as §2

[7] = test system: pigweed (Amaranthus retroflexus); test: Test A postemergence; conditions: Amaranthus retroflexus, post-emergence, 240 h, Postemergence, read-out: Plant response rating, Pigweed
Outline: as §2

[8] = test system: giant foxtail (Setaria faberii); test: Test A postemergence; conditions: Setaria faberi, post-emergence, 240 h, Postemergence, read-out: Plant response rating, Foxtail, Giant
Outline: as §2

[9] = test system: blackgrass (Alopecurus myosuroides); test: Test A postemergence; conditions: Alopecurus myosuroides, post-emergence, 240 h, Postemergence, read-out: Plant response rating, Blackgrass
Outline: as §2

[10] = test system: barnyardgrass (Echinochloa crus-galli); test: Test A postemergence; conditions: Echinochloa crus-galli, post-emergence, 240 h, Postemergence, read-out: Plant response rating, Barnyardgrass
Outline: as §2

[11] = test system: ragweed (common ragweed, Ambrosia elatior); test: Test A postemergence; conditions: Ambrosia artemisiifolia, post-emergence, 240 h, Postemergence, read-out: Plant response rating, Ragweed
Outline: as §2

[12] = test system: Kochia (Kochia scoparia); test: Test A postemergence; conditions: Bassia scoparia, post-emergence, 240 h, Postemergence, read-out: Plant response rating, Kochia
Outline: as §2

[13] = test system: corn (Zea mays); test: Test A postemergence; conditions: Zea mays, post-emergence, 240 h, Postemergence
Outline: as §2

[14] = test system: ryegrass, Italian (Italian ryegrass, Lolium multiflorum); test: Test A postemergence; conditions: Lolium multiflorum, post-emergence, 240 h, Postemergence, read-out: Plant response rating, Ryegrass, Italian
Outline: as §2

[15] = test system: pigweed (Amaranthus retroflexus); test: Test A preemergence; conditions: Amaranthus retroflexus, pre-emergence, 240 h, Preemergence
[16] = test system: giant foxtail (Setaria faberii); test: Test A preemergence; conditions: Setaria faberi, pre-emergence, 240 h, Preemergence
Outline: as §2

[17] = test system: barnyardgrass (Echinochloa crus-galli); test: Test A preemergence; conditions: Echinochloa crus-galli, pre-emergence, 240 h, Preemergence
Outline: as §2

[18] = test system: ragweed (common ragweed, Ambrosia elatior); test: Test A preemergence; conditions: Ambrosia artemisiifolia, pre-emergence, 240 h, Preemergence
Outline: as §2

[19] = test system: Kochia (Kochia scoparia); test: Test A preemergence; conditions: Bassia scoparia, pre-emergence, 240 h, Preemergence
Outline: as §2

[20] = test system: ryegrass, Italian (Italian ryegrass, Lolium multiflorum); test: Test A preemergence; conditions: Lolium multiflorum, pre-emergence, 240 h, Preemergence
Outline: as §2

[21] = 125 g ai/ha, visual injury after approximately 10 d, 0 to 100 scale where 0 is no effect and 100 is complete control
[22] = 31 g ai/ha, visual injury after approx. 10 d, 0 to 100 scale, 0 no effect, 100 complete control

CC(C)=CC1CNC(=O)C1C(=O)Nc1ccccc1F (stereo not drawn) [Compound 1011]
0%: pest or weed control at 250 g/ha [1] | pest or weed control at 250 g/ha [2] | pest or weed control at 250 g/ha [3] | pest or weed control at 250 g/ha [4] | plant injury at 125 g/ha [5, 21] | plant injury at 31 g/ha [5, 22] | pest or weed control at 125 g/ha [6, 21] | pest or weed control at 31 g/ha [6, 22] | pest or weed control at 125 g/ha [7, 21] | pest or weed control at 31 g/ha [7, 22] | pest or weed control at 125 g/ha [8, 21] | pest or weed control at 31 g/ha [8, 22] | pest or weed control at 125 g/ha [9, 21] | pest or weed control at 31 g/ha [9, 22] | pest or weed control at 125 g/ha [10, 21] | pest or weed control at 31 g/ha [10, 22] | pest or weed control at 125 g/ha [11, 21] | pest or weed control at 31 g/ha [11, 22] | pest or weed control at 125 g/ha [12, 21] | pest or weed control at 31 g/ha [12, 22] | Corn plant response rating (crop injury, 0 = no effect, 100 = complete kill) at 125 g/ha [13, 21] | Corn plant response rating (crop injury, 0 = no effect, 100 = complete kill) at 31 g/ha [13, 22] | pest or weed control at 125 g/ha [14, 21] | pest or weed control at 31 g/ha [14, 22] | pest or weed control at 31 g/ha ([15]; 31 g ai/ha, 0 to 100 scale where 0 is no effect and 100 is complete control, read-out: Pigweed plant response rating) | pest or weed control at 125 g/ha ([15]; 125 g ai/ha, visual injury rating after approximately 10 d, read-out: Pigweed plant response rating (0 to 100 scale, 0 is no effect, 100 is complete control)) | pest or weed control at 125 g/ha ([16]; 125 g ai/ha, visual injury rating after approximately 10 d, read-out: Foxtail, Giant plant response rating (0 to 100 scale, 0 is no effect, 100 is complete control)) | pest or weed control at 31 g/ha ([16]; 31 g ai/ha, 0 to 100 scale (0 no effect, 100 complete control), read-out: Plant response rating, Foxtail, Giant) | pest or weed control at 125 g/ha ([17]; 125 g ai/ha, visual injury rating after approximately 10 d, read-out: Barnyardgrass plant response rating (0 to 100 scale, 0 is no effect, 100 is complete control)) | pest or weed control at 31 g/ha ([17]; 31 g ai/ha, 0 to 100 scale (0 no effect, 100 complete control), read-out: Plant response rating, Barnyardgrass) | pest or weed control at 31 g/ha ([18]; 31 g ai/ha, 0 to 100 scale where 0 is no effect and 100 is complete control, read-out: Ragweed plant response rating) | pest or weed control at 125 g/ha ([18]; 125 g ai/ha, visual injury rating after approximately 10 d, read-out: Ragweed plant response rating (0 to 100 scale, 0 is no effect, 100 is complete control)) | pest or weed control at 31 g/ha ([19]; 31 g ai/ha, 0 to 100 scale where 0 is no effect and 100 is complete control, read-out: Kochia plant response rating) | pest or weed control at 125 g/ha ([19]; 125 g ai/ha, visual injury rating after approximately 10 d, read-out: Kochia plant response rating (0 to 100 scale, 0 is no effect, 100 is complete control)) | pest or weed control at 31 g/ha ([20]; 31 g ai/ha, 0 to 100 scale where 0 is no effect and 100 is complete control, read-out: Ryegrass, Italian plant response rating) | pest or weed control at 125 g/ha ([20]; 125 g ai/ha, visual injury rating after approximately 10 d, read-out: Ryegrass, Italian plant response rating (0 to 100 scale, 0 is no effect, 100 is complete control))
